Data from the NIST ThermoML archive (doi:10.1016/j.jct.2010.08.019).
Several values for one entry are separate records, joined by “and”; a condition that tells them apart may be missing. Equal entries are not always repeated. ± gives the expanded uncertainty stated by the source.

How the values were obtained:
[1] = refractive index (Na D-line) (dimensionless); details: Liquid, Standard Abbe refractometry
[2] = for surface tension liquid-gas: Wilhelmy-plate method; for viscosity / mass density: Liquid; for viscosity: Falling or rolling sphere viscometry; for mass density: Vibrating tube method
[3] = refractive index (Na D-line) (dimensionless); xn = mol fraction of the nth substance listed; details: 101 kPa, Liquid, Standard Abbe refractometry
[4] = xn = mol fraction of the nth substance listed; details: for surface tension liquid-gas: Wilhelmy-plate method; for viscosity / mass density: 101 kPa, Liquid; for viscosity: Falling or rolling sphere viscometry; for mass density: Vibrating tube method

Row | SMILES | refractive index ([1]; 293.15 K, 101 kPa) | refractive index ([1]; 298.15 K, 101.33 kPa) | refractive index ([1]; 303.15 K, 101 kPa) | refractive index ([1]; 313.15 K, 101 kPa) | refractive index ([1]; 323.15 K, 101 kPa) | surface tension liquid-gas ([2]; 293.15 K) [mN/m] | viscosity ([2]; 293.15 K, 101 kPa) [mPa·s] | mass density ([2]; 293.15 K, 101 kPa) [kg/m3] | surface tension liquid-gas ([2]; 298.15 K) [mN/m] | viscosity ([2]; 298.15 K, 101.33 kPa) [mPa·s] | mass density ([2]; 298.15 K, 101.33 kPa) [kg/m3] | surface tension liquid-gas ([2]; 303.15 K) [mN/m] | viscosity ([2]; 303.15 K, 101 kPa) [mPa·s] | mass density ([2]; 303.15 K, 101 kPa) [kg/m3] | surface tension liquid-gas ([2]; 313.15 K) [mN/m] | viscosity ([2]; 313.15 K, 101 kPa) [mPa·s] | mass density ([2]; 313.15 K, 101 kPa) [kg/m3] | surface tension liquid-gas ([2]; 323.15 K) [mN/m] | viscosity ([2]; 323.15 K, 101 kPa) [mPa·s] | mass density ([2]; 323.15 K, 101 kPa) | further results
1 | CC(C)CC(C)(C)C [2,2,4-trimethylpentane] | 1.39161 ± 0.00033 | 1.38906 ± 0.00033 | 1.3866 ± 0.00033 | 1.38143 ± 0.00033 | 1.37627 ± 0.00033 | 18.8 ± 0.4 | 0.503 ± 0.009 | 691.98 ± 0.18 | 18.3 ± 0.4 | 0.475 ± 0.009 | 687.7 ± 0.2 | 17.9 ± 0.4 | 0.447 ± 0.009 | 683.61 ± 0.18 | 16.9 ± 0.4 | 0.404 ± 0.009 | 675.23 ± 0.18 | 16.2 ± 0.4 | 0.365 ± 0.009 | 666.8 ± 0.19 kg/m3 | 
2 | CC(C)CC(C)(C)C [2,2,4-trimethylpentane] + C1CCOCC1 |  |  |  |  |  |  |  |  |  |  |  |  |  |  |  |  |  |  |  |  | refractive index ([3]; 293.15 K, x2 = 0): 1.39161 ± 0.00033; refractive index ([3]; 303.15 K, x2 = 0): 1.3866 ± 0.00033; refractive index ([3]; 313.15 K, x2 = 0): 1.38143 ± 0.00033; refractive index ([3]; 323.15 K, x2 = 0): 1.37627 ± 0.00033; surface tension liquid-gas ([4]; 293.15 K, x2 = 0): 18.8 ± 0.4 mN/m; viscosity ([4]; 293.15 K, x2 = 0): 0.503 ± 0.009 mPa·s; mass density ([4]; 293.15 K, x2 = 0): 691.98 ± 0.18 kg/m3; surface tension liquid-gas ([4]; 303.15 K, x2 = 0): 17.9 ± 0.4 mN/m; viscosity ([4]; 303.15 K, x2 = 0): 0.447 ± 0.009 mPa·s; mass density ([4]; 303.15 K, x2 = 0): 683.61 ± 0.18 kg/m3; surface tension liquid-gas ([4]; 313.15 K, x2 = 0): 16.9 ± 0.4 mN/m; viscosity ([4]; 313.15 K, x2 = 0): 0.404 ± 0.009 mPa·s; mass density ([4]; 313.15 K, x2 = 0): 675.23 ± 0.18 kg/m3; surface tension liquid-gas ([4]; 323.15 K, x2 = 0): 16.2 ± 0.4 mN/m; viscosity ([4]; 323.15 K, x2 = 0): 0.365 ± 0.009 mPa·s; mass density ([4]; 323.15 K, x2 = 0): 666.8 ± 0.19 kg/m3
3 | CC(C)O [propan-2-ol] | 1.37724 ± 0.00033 | 1.3752 ± 0.00033 | 1.37286 ± 0.00033 | 1.36852 ± 0.00033 | 1.36363 ± 0.00033 | 21.3 ± 0.4 | 2.362 ± 0.02 | 785.44 ± 0.15 | 20.9 ± 0.4 | 2.04 ± 0.02 | 781.05 ± 0.15 | 20.4 ± 0.4 | 1.769 ± 0.016 | 776.75 ± 0.15 | 19.6 ± 0.4 | 1.331 ± 0.013 | 767.93 ± 0.15 | 18.8 ± 0.4 | 1.019 ± 0.012 | 758.9 ± 0.16 kg/m3 | 
4 | CC(C)O [propan-2-ol] + C1CCOCC1 |  |  |  |  |  |  |  |  |  |  |  |  |  |  |  |  |  |  |  |  | refractive index ([3]; 293.15 K, x1 = 1): 1.37724 ± 0.00033; refractive index ([3]; 303.15 K, x1 = 1): 1.37286 ± 0.00033; refractive index ([3]; 313.15 K, x1 = 1): 1.36852 ± 0.00033; refractive index ([3]; 323.15 K, x1 = 1): 1.36363 ± 0.00033; surface tension liquid-gas ([4]; 293.15 K, x1 = 1): 21.3 ± 0.4 mN/m; viscosity ([4]; 293.15 K, x1 = 1): 2.362 ± 0.02 mPa·s; mass density ([4]; 293.15 K, x1 = 1): 785.44 ± 0.15 kg/m3; surface tension liquid-gas ([4]; 303.15 K, x1 = 1): 20.4 ± 0.4 mN/m; viscosity ([4]; 303.15 K, x1 = 1): 1.769 ± 0.016 mPa·s; mass density ([4]; 303.15 K, x1 = 1): 776.75 ± 0.15 kg/m3; surface tension liquid-gas ([4]; 313.15 K, x1 = 1): 19.6 ± 0.4 mN/m; viscosity ([4]; 313.15 K, x1 = 1): 1.331 ± 0.013 mPa·s; mass density ([4]; 313.15 K, x1 = 1): 767.93 ± 0.15 kg/m3; surface tension liquid-gas ([4]; 323.15 K, x1 = 1): 18.8 ± 0.4 mN/m; viscosity ([4]; 323.15 K, x1 = 1): 1.019 ± 0.012 mPa·s; mass density ([4]; 323.15 K, x1 = 1): 758.9 ± 0.16 kg/m3
5 | CC(C)O [propan-2-ol] + CC(C)CC(C)(C)C |  |  |  |  |  |  |  |  |  |  |  |  |  |  |  |  |  |  |  |  | refractive index ([3]; 293.15 K, x1 = 1): 1.37724 ± 0.00033; refractive index ([3]; 303.15 K, x1 = 1): 1.37286 ± 0.00033; refractive index ([3]; 313.15 K, x1 = 1): 1.36852 ± 0.00033; refractive index ([3]; 323.15 K, x1 = 1): 1.36363 ± 0.00033; surface tension liquid-gas ([4]; 293.15 K, x1 = 1): 21.3 ± 0.4 mN/m; viscosity ([4]; 293.15 K, x1 = 1): 2.362 ± 0.02 mPa·s; mass density ([4]; 293.15 K, x1 = 1): 785.44 ± 0.15 kg/m3; surface tension liquid-gas ([4]; 303.15 K, x1 = 1): 20.4 ± 0.4 mN/m; viscosity ([4]; 303.15 K, x1 = 1): 1.769 ± 0.016 mPa·s; mass density ([4]; 303.15 K, x1 = 1): 776.75 ± 0.15 kg/m3; surface tension liquid-gas ([4]; 313.15 K, x1 = 1): 19.6 ± 0.4 mN/m; viscosity ([4]; 313.15 K, x1 = 1): 1.331 ± 0.013 mPa·s; mass density ([4]; 313.15 K, x1 = 1): 767.93 ± 0.15 kg/m3; surface tension liquid-gas ([4]; 323.15 K, x1 = 1): 18.8 ± 0.4 mN/m; viscosity ([4]; 323.15 K, x1 = 1): 1.019 ± 0.012 mPa·s; mass density ([4]; 323.15 K, x1 = 1): 758.9 ± 0.16 kg/m3
6 | C1CCOCC1 [tetrahydropyran] | 1.39161 ± 0.00037 and 1.42109 ± 0.00037 | 1.4186 ± 0.0004 | 1.3866 ± 0.00037 and 1.41599 ± 0.00037 | 1.38143 ± 0.00037 and 1.41092 ± 0.00037 | 1.37627 ± 0.00037 and 1.40554 ± 0.00037 | 27.5 ± 0.4 | 0.86 ± 0.011 | 884.27 ± 0.23 | 27.2 ± 0.4 | 0.8 ± 0.01 | 878.8 ± 0.2 | 26.2 ± 0.4 | 0.749 ± 0.01 | 874.07 ± 0.23 | 25.1 ± 0.4 | 0.658 ± 0.01 | 863.76 ± 0.47 | 23.8 ± 0.4 | 0.565 ± 0.009 | 666.8 ± 0.83 kg/m3 and 853.46 ± 0.24 kg/m3 | 
